Results as given in patent EP0353416A2, “Use of ajoene and ajoene derivatives as cytostatics” (Gesellschaft für Biotechnologische Forschung mbH (GBF), priority 1988, dated 1990).

Experiments:
[1] = Inhibition of proliferation by incorporation of radioactive thymidine, BHK cell culture; assay type: cell-based, Hamster; settings: hamster; BHK cells; beyond the limit of reversible inhibition; read-out: irreversible, d. h. toxische Wirkung
Excerpt: (§1) Man ließ Ajoen auf eine Zellkultur der SV40-transformierten Baby-Hamster-Kidney-Linie (BHK; Fibroblast) einwirken. Die Proliferationshemmung wurde über den Einbau von radioaktivem Thymidin getestet.

[2] = tested on: SV40-transformierten Baby-Hamster-Kidney-Linie (BHK; Fibroblast); assay: as above; assay type: cell-based; settings: BHK cells
Excerpt: as §1

[3] = tested on: Hela-Zellen; assay: Inhibition of proliferation (thymidine incorporation), Hela cells; assay type: cell-based; settings: Hela cells (Beispiel 3)
Procedure: (§2) Man ließ Ajoen auf eine Zellkultur der SV40-transformierten Baby-Hamster-Kidney-Linie (BHK; Fibroblast) einwirken. Die Proliferationshemmung wurde über den Einbau von radioaktivem Thymidin getestet. Sie ließ sich ab 1 µg Ajoen/ml ermitteln. Die Figur zeigt eine typische Hemmkurve. Der Figur läßt sich entnehmen, daß die Ki-Werte (50 %) im Bereich von etwa 1 bis 10 und insbesondere etwa 2 bis 5 µg Ajoen/ml lagen.
(§3) Beispiel 1 wurde ferner abweichend mit folgenden Linien nachgearbeitet: Hela-Zellen (Beispiel 3), LTK-Mäusezellen (Fibro blasten; Beispiel 4) und humane FS4-Vorhautzellen (Fibroblast). Auch bei diesen Beispielen wurde die cytostatische und cytotoxische Wirkung des Ajoens bestätigt.

[4] = tested on: LTK-Mäusezellen (Fibroblasten); assay: Inhibition of proliferation (thymidine incorporation), LTK mouse cells; assay type: cell-based, Mäuse; settings: LTK mouse cells (Beispiel 4)
Procedure: as §2, §3

[5] = tested on: humane FS4-Vorhautzellen (Fibroblast); assay: Inhibition of proliferation (thymidine incorporation), human FS4 foreskin cells; assay type: cell-based
Procedure: as §2, §3

## C=CCSSC=CC[S+]([O-])CC=C (stereo not drawn) [Ajoen]
[1]
  MCC: > 20 µg/mL
[2]; upper concentration of reversible inhibition
  Hemmung der Proliferation reversibel bis zu: ≤ 20 µg Ajoen/ml
[2]; Mesocricetus auratus, lowest concentration at which inhibition was detectable, thymidine incorporation, read-out: Proliferationshemmung ließ sich ermitteln ab
  minimal effective concentration: ≥ 1 µg/mL
[3]
  cytostatische und cytotoxische Wirkung: bestätigt
[4]
  cytostatische und cytotoxische Wirkung: bestätigt
[5]
  cytostatische und cytotoxische Wirkung: bestätigt
